According to US11345679B2, “Quaternary lactam compound and pharmaceutical use thereof” (SHANGHAI MEIYUE BIOTECH DEVELOPMENT CO., LTD., priority 2018, dated 2022):
Read-outs that look alike come from different tables or passages of the source.

Tests used:
[1] = molecular target: human FXIa protein (hFXIa) (Homo sapiens (Human), UniProt P03951); test: Enzyme activity assay in vitro (FXIa, S-2366 substrate); format: biochemical; conditions: absorbance at OD405nm
Experimental: II. Enzyme Activity Assay In Vitro
Method: the test compound was dissolved in 10 mM mother liquor with DMSO, and stored at −80° C. until use.

human plasma = test: Determination of activated partial thromboplastin time (APTT); format: biochemical
Experimental: 1. Determination of Activated Partial Thromboplastin Time (APTT)
1. Preparation of human plasma: human venous whole blood was collected and placed in 3.2% sodium citrate anticoagulation tube (human blood: sodium citrate=9:1 (V/V)). The tube was centrifuged at ˜1560 g for 8 min, to obtain human plasma.
2. Preparation of the test sample: the test compound was dissolved in DMSO, and diluted in gradient to obtain 3000, 600, 120, 24, 4.8 μM stock solutions; each stock solution was mixed with the human plasma as prepared under item 1 at a ratio of 1:49 (V/V).
3. Negative control: DMSO solvent without the test compound was diluted in gradient to obtain 3000, 600, 120, 24, 4.8 μM stock solutions; each stock solution was mixed with the human plasma as prepared under item 1 at a ratio of 1:49 (V/V).
4. Test: After mixing the test solution of the above test sample and that of the negative control separately for 3 to 5 minutes, 30 μL of the test solution was added to the machine (MC-2000 coagulometer), and pre-warmed at 37° C. for 2 min; 30 μL of APTT reagent (MDC Hemostasis, Cat: 300025) was added and incubated at 37° C. for 5 min; and then 30 μL CaCl2 was added to initiate the APTT measurement.
According to the measured APTT result, APTT ratio was calculated according to the following formula. APTT ratio=(APTTtest compound/APTTnegative control).
Exponential equation was used to fit the Lg (concentration) to APTT ratio (Origin Pro 8.5.1 SR2), the drug working concentrations at 1.5 times APTT ratio and 2 times APTT ratio were calculated, namely EC150 and EC200.

[2] = drug working concentration at 1.5 times APTT ratio, read-out: EC150
[3] = drug working concentration at 2 times APTT ratio, read-out: EC200

human FXIa protein (hFXIa), sequence (P03951 388-625): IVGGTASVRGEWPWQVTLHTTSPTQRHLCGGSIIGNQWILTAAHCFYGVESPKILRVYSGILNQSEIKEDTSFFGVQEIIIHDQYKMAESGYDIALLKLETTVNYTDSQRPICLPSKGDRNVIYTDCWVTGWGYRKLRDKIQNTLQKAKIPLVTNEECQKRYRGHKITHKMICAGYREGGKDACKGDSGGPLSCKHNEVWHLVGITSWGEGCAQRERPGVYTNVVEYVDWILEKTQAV
human FXIa protein (hFXIa), sequence (P03951 19-387 partner): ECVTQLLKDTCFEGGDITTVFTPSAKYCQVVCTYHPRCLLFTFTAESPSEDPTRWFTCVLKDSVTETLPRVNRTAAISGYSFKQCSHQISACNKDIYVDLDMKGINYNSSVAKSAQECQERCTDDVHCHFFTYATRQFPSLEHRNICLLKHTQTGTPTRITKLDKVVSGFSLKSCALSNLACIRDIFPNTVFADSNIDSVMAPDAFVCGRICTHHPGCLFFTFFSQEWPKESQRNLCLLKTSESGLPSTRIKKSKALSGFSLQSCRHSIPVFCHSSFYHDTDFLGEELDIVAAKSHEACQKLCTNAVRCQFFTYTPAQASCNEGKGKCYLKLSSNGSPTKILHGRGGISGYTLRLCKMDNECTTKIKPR

| SMILES | IC50 [1] [nM] | concentration giving fixed-fold APTT prolongation (human plasma; [2]) [µM] | concentration giving fixed-fold APTT prolongation (human plasma; [3]) [µM] |
| --- | --- | --- | --- |
| CNC(=O)[C@@H]1[C@@H](Cc2ccnc(N)c2)C(=O)N1C(=O)N1CCCC(C2CCCCCCC2)C1 (stereo partly shown) [Example 45] | 5.3 |  |  |
| CNC(=O)[C@@H]1[C@@H](Cc2ccnc(N)c2)C(=O)N1C(=O)N1CCC[C@@H](c2ccccc2)C1 [Example 41] | 4.1 | 2.18 | 8.22 |
| CN(C)C(=O)[C@@H]1[C@@H](Cc2ccnc(N)c2)C(=O)N1C(=O)N1CCCCC1c1ccccc1 (stereo partly shown) [Example 20] | 10.8 |  |  |
| NC(=O)[C@@H]1[C@@H](Cc2ccnc(N)c2)C(=O)N1C(=O)N1CCC[C@@H](c2ccccc2)C1 [Example 31] | 2.8 |  |  |
| CS(=O)(=O)NC(=O)[C@@H]1[C@@H](Cc2ccnc(N)c2)C(=O)N1C(=O)N1CCCCC1c1ccccc1 (stereo partly shown) [Example 18] | 10.7 |  |  |
| N#Cc1ccc2c(c1)CCN2C(=O)N1C(=O)[C@H](Cc2ccnc(N)c2)[C@H]1C(=O)O [Example 13] | 23.2 |  |  |
| CNC(=O)[C@@H]1[C@@H](Cc2ccnc(N)c2)C(=O)N1C(=O)N1CCCCC1c1ccccc1 (stereo partly shown) [Example 19] | 5.99 |  |  |
| CN(C)C(=O)[C@@H]1[C@@H](Cc2ccnc(N)c2)C(=O)N1C(=O)N1CCC[C@H](c2ccccc2)C1 [Example 24] | 3.6 |  |  |
| CNC(=O)[C@@H]1[C@@H](Cc2ccnc(N)c2)C(=O)N1C(=O)N1CCCC(c2ccc(F)cc2)C1 (stereo partly shown) [Example 30] | 2.4 |  |  |
| CS(=O)(=O)NC(=O)[C@@H]1[C@@H](Cc2ccnc(N)c2)C(=O)N1C(=O)N1CCC[C@H](c2ccccc2)C1 [Example 25] | 3.2 |  |  |
| Nc1cc(C[C@H]2C(=O)N(C(=O)N3CCC[C@H](c4ccccc4)C3)[C@@H]2C(=O)O)ccn1 [Example 16] | 1.89 | 1.41 | 6.99 |
| Cn1cc(C2CCCN(C(=O)N3C(=O)[C@H](Cc4ccnc(N)c4)[C@H]3C(=O)O)C2)cn1 (stereo partly shown) [Example 28] | 23.1 |  |  |
| CNC(=O)[C@@H]1[C@@H](Cc2ccnc(N)c2)C(=O)N1C(=O)N1CCC[C@H](c2ccccc2)C1 [Example 23] | 1.5 | 1.48 | 4.4 |
| Nc1cc(C[C@H]2C(=O)N(C(=O)N3CCCC(c4ccc5c(c4)OC(F)(F)O5)C3)[C@@H]2C(=O)O)ccn1 (stereo partly shown) [Example 26] | 11.1 |  |  |
| CNC(=O)[C@@H]1[C@@H](Cc2ccnc(N)c2)C(=O)N1C(=O)N1CCCC(c2ccccc2)C1 (stereo partly shown) [Example 51] | 3.3 |  |  |
| CNC(=O)[C@@H]1[C@@H](Cc2ccnc(N)c2)C(=O)N1C(=O)N1CCCC(c2ccc3c(c2)OC(F)(F)O3)C1 (stereo partly shown) [Example 33] | 3.5 |  |  |
| NC(=O)[C@@H]1[C@@H](Cc2ccnc(N)c2)C(=O)N1C(=O)N1CCCC(c2ccc3c(c2)OC(F)(F)O3)C1 (stereo partly shown) [Example 32] | 4.1 |  |  |
| COC(=O)Nc1cccc(C2CCCN(C(=O)N3C(=O)[C@H](Cc4ccnc(N)c4)[C@H]3C(=O)O)C2)c1 (stereo partly shown) [Example 42] | 9.1 |  |  |
| Nc1cc(C[C@H]2C(=O)N(C(=O)N3CCCC(c4cccc5ccccc45)C3)[C@@H]2C(=O)O)ccn1 (stereo partly shown) [Example 46] | 7.7 |  |  |
